Results: patent US20030215462A1, “Use of UGT inhibitors to increase bioavailability” (priority 2001, published 2003)
Where “and” joins values, the source holds several entries; their conditions need not be identical. Equal values may be shown once. Blank lines part the entries; values can stand above or below the compound they belong to.

What was measured:
Format in all cases: biochemical
[1] = test system: UGT enzymes of human liver microsomes; assay: Inhibition of raloxifene glucuronidation (G1, G2) in human liver microsomes; conditions: for % of control metabolism (SD, n = 3), raloxifene glucuronide G1 / % of control metabolism (SD, n = 3), raloxifene glucuronide G2: human liver microsomes 250 μg/ml, 15 min
Source text: (§1) Compounds were eluted using a binary solvent gradient system. […] Solvent B was methanol. […] Detection was at 280 nm.

[2] = test system: T1, UGT enzymes of human liver microsomes; assay: Inhibition of estradiol (E2) glucuronidation in human liver microsomes; conditions: liver 032101, E2 50 μM
T1 construct: residual metabolism (% of control), E2-17-β-D-glucuronide; other: liver 032101; residual metabolism (% of control), E2-17-β-D-glucuronide
Source text: (§2) Compounds were eluted using a binary solvent gradient system where solvent A was dilute phosphoric acid (pH 3) and solvent B was 80:20 acetonitrile-methanol. […] Detection was at 280 nm.

[3] = test system: T2, UGT enzymes of human liver microsomes; assay: as above; conditions: liver 032101, E2 50 μM
T2 construct: residual metabolism (% of control), E2-3-β-D-glucuronide; other: liver 032101; residual metabolism (% of control), E2-3-β-D-glucuronide
Source text: as §2

[4] = test system: UGT enzymes of pooled human jejunum microsomes; assay: Inhibition of raloxifene glucuronidation (G1, G2) in pooled human jejunum microsomes; conditions: jejunum HJ61
Experimental: as §1
Standardized incubations utilized […] microsomal protein, 1 mM UDPGA and a 30 min incubation time.

[5] = test system: UGT enzymes of pooled human jejunum microsomes; assay: Inhibition of 2ME2 glucuronidation (MG1) in pooled human jejunum microsomes; conditions: jejunum HJ61, 2ME2 50 μM
Source text: as §2

[6] = molecular target: T3, UGT enzymes of human liver microsomes (Homo sapiens, UniProt P16662); assay: Inhibition of zidovudine glucuronidation in human liver microsomes; conditions: liver lot 062101
T3 construct: residual metabolism (percentage of control), zidovudine glucuronidation; other: liver lot 062101; residual metabolism (percentage of control), zidovudine glucuronidation; residual metabolism (percentage of control)
T3 sequence (P16662 1-529): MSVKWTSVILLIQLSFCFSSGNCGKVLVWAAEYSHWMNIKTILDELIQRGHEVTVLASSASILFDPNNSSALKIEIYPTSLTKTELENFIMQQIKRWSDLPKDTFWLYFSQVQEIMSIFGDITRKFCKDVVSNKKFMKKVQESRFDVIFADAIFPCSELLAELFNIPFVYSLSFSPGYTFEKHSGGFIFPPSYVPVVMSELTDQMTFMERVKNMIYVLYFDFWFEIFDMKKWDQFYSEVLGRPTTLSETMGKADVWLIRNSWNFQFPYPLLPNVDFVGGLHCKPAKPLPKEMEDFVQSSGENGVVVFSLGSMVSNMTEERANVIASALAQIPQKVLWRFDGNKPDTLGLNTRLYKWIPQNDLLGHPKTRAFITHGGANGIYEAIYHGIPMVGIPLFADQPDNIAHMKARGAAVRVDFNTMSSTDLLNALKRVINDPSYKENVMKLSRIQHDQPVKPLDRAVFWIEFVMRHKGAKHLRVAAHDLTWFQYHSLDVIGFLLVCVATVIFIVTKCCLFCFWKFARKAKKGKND
Experimental: Compounds were eluted using a binary solvent gradient system where solvent A was dilute phosphoric acid (pH 3) and solvent B was acetonitrile.
Standardized incubations utilized 500 μM zidovudine substrate, 1 mg/ml microsomal protein, 5 mM UDPGA and a 30 min incubation time. […] Int.

[7] = test system: T4, UGT enzymes of human liver microsomes; assay: Inhibition of 2ME2 glucuronidation (MG1, MG2) in human liver microsomes; conditions: liver 062101, 2ME2 50 μM
T4 construct: other: liver 062101
Source text: as §2

[8] = test system: UGT enzymes of human liver microsomes; assay: Inhibition of estradiol (E2) glucuronidation in human liver microsomes; conditions: E2 50 μM
Source text: as §2

[9] = test system: T5, UGT enzymes of human liver microsomes; assay: Inhibition of labetalol glucuronidation (LG1, LG2) in human liver microsomes; conditions: labetalol 50 μM
T5 construct: residual metabolism (percentage of control), labetalol LG1; other: labetalol 50 μM; residual metabolism (percentage of control), labetalol LG1; residual metabolism (percentage of control), labetalol LG2; inhi
Experimental: Supernatants were analyzed by HPLC with fluorescence detection.
Compounds were eluted using a binary solvent gradient system where solvent A was 5:5:90 tetrahydrofuran-acetonitrile-(NH4)2HPO4 50 mM, while solvent B was 25:25:50 tetrahydrofuran-acetonitrile-(NH4)2HPO4 50 mM. Solvent flow rate was 0.75 ml/min and the column temperature was ambient. […] Labetalol and metabolites were measured by fluorescence detection using a Jasco model FP920 detector. Excitation and emission wavelengths were 370 nm 418 nm respectively. Retention times for salicylamide internal standard and labetalol were 6.6 min and 15.0 min respectively.

[10] = inhibitor 10 μM, raloxifene 50 μM
[11] = inhibitor 25 μM, raloxifene 50 μM
[12] = inhibitor 50 μM, raloxifene 50 μM
[13] = inhibitor 100 μM, raloxifene 50 μM
[14] = liver lot 032101, inhibitor 50 μM
[15] = liver lot 062101, inhibitor 50 μM
[16] = liver lot 083000, inhibitor 50 μM
[17] = raloxifene 50 μM, inhibitor 10 μM
[18] = raloxifene 50 μM, inhibitor 25 μM
[19] = raloxifene 50 μM, inhibitor 50 μM
[20] = raloxifene 50 μM, inhibitor 100 μM
[21] = inhibitor 2 μM, raloxifene 50 μM
[22] = inhibitor 5 μM, raloxifene 50 μM
[23] = inhibitor 500 μM, raloxifene 50 μM
[24] = liver lot 032101, inhibitor 10 μM
[25] = liver lot 062101, inhibitor 10 μM
[26] = liver lot 083000, inhibitor 10 μM

% of control metabolism (SD, n = 3), raloxifene glucuronide G1 [1, 10]: 68 (3) % | % of control metabolism (SD, n = 3), raloxifene glucuronide G1 [1, 11]: 48 (6) % | % of control metabolism (SD, n = 3), raloxifene glucuronide G1 [1, 12]: 37 (2) % | % of control metabolism (SD, n = 3), raloxifene glucuronide G1 [1, 13]: 31 (3) % | % of control metabolism (SD, n = 3), raloxifene glucuronide G2 [1, 10]: 75 (8) % | % of control metabolism (SD, n = 3), raloxifene glucuronide G2 [1, 11]: 59 (5) % | % of control metabolism (SD, n = 3), raloxifene glucuronide G2 [1, 12]: 46 (3) % | % of control metabolism (SD, n = 3), raloxifene glucuronide G2 [1, 13]: 52 (7) % | % of control metabolism, raloxifene G1 [1, 14]: 45 (1) % | % of control metabolism, raloxifene G2 [1, 14]: 59 (3) % | % of control metabolism, raloxifene G1 [1, 15]: 55 (5) % | % of control metabolism, raloxifene G2 [1, 15]: 45 (6) % | % of control metabolism, raloxifene G1 [1, 16]: 37 (2) % | % of control metabolism, raloxifene G2 [1, 16]: 46 (3) % | % of control metabolism, raloxifene G1 [1, 17]: 68 (3) % | % of control metabolism, raloxifene G2 [1, 17]: 75 (8) % | % of control metabolism, raloxifene G1 [1, 18]: 48 (6) % | % of control metabolism, raloxifene G2 [1, 18]: 59 (5) % | % of control metabolism, raloxifene G1 [1, 19]: 37 (2) % | % of control metabolism, raloxifene G2 [1, 19]: 46 (3) % | % of control metabolism, raloxifene G1 [1, 20]: 31 (3) % | % of control metabolism, raloxifene G2 [1, 20]: 52 (7) % | residual metabolism (% of control), E2-17-β-D-glucuronide ([2]; inhibitor 50 μM): 88 (1) % | residual metabolism (% of control), E2-17-β-D-glucuronide ([2]; inhibitor 100 μM): 74 (2) % | residual metabolism (% of control), E2-3-β-D-glucuronide ([3]; inhibitor 50 μM): 53 (1) % | residual metabolism (% of control), E2-3-β-D-glucuronide ([3]; inhibitor 100 μM): 33 (2) % | % of control metabolism, raloxifene G1 ([4]; inhibitor 50 μM): 80 (3) % | % of control metabolism, raloxifene G2 ([4]; inhibitor 50 μM): 137 (9) % | residual metabolism (% of control), 2ME2 MG1 ([5]; inhibitor 50 μM): 121 (7) % | residual metabolism (% of control), 2ME2 MG1 ([5]; inhibitor 100 μM): 58 (3) % | residual metabolism (percentage of control), zidovudine glucuronidation ([6]; inhibitor 500 μM): 54 (3) % | residual metabolism (percentage of control), zidovudine glucuronidation ([6]; inhibitor 1000 μM): 17 (1) % | residual metabolism (% of control), 2ME2 MG1 ([7]; inhibitor 50 μM): 68 (3) % | residual metabolism (% of control), 2ME2 MG2 ([7]; inhibitor 50 μM): 94 (4) % | residual metabolism (% of control), 2ME2 MG1 ([7]; inhibitor 100 μM): 51 (0) % | residual metabolism (% of control), 2ME2 MG2 ([7]; inhibitor 100 μM): 65 (3) %
SMILES: CCCCCCCCOC(=O)c1cc(O)c(O)c(O)c1 [Octyl gallate]

% of control metabolism (SD, n = 3), raloxifene glucuronide G1 [1, 21]: 94 (6) % | % of control metabolism (SD, n = 3), raloxifene glucuronide G1 [1, 22]: 83 (1) % | % of control metabolism (SD, n = 3), raloxifene glucuronide G1 [1, 10]: 58 (3) % | % of control metabolism (SD, n = 3), raloxifene glucuronide G1 [1, 11]: 36 (2) % | % of control metabolism (SD, n = 3), raloxifene glucuronide G1 [1, 12]: 14 (1) % | % of control metabolism (SD, n = 3), raloxifene glucuronide G1 [1, 13]: 8 (0) % | % of control metabolism (SD, n = 3), raloxifene glucuronide G1 [1, 23]: 0 (0) % | % of control metabolism (SD, n = 3), raloxifene glucuronide G2 [1, 21]: 107 (5) % | % of control metabolism (SD, n = 3), raloxifene glucuronide G2 [1, 22]: 109 (1) % | % of control metabolism (SD, n = 3), raloxifene glucuronide G2 [1, 10]: 111 (7) % | % of control metabolism (SD, n = 3), raloxifene glucuronide G2 [1, 11]: 100 (5) % | % of control metabolism (SD, n = 3), raloxifene glucuronide G2 [1, 12]: 58 (2) % | % of control metabolism (SD, n = 3), raloxifene glucuronide G2 [1, 13]: 43 (0) % | % of control metabolism (SD, n = 3), raloxifene glucuronide G2 [1, 23]: 0 (0) % | % of control metabolism, raloxifene G1 [1, 24]: 70 (2) % | % of control metabolism, raloxifene G2 [1, 24]: 96 (1) % | % of control metabolism, raloxifene G1 [1, 25]: 89 (2) % | % of control metabolism, raloxifene G2 [1, 25]: 83 (2) % | % of control metabolism, raloxifene G1 [1, 26]: 58 (3) % | % of control metabolism, raloxifene G2 [1, 26]: 111 (7) % | % of control metabolism, raloxifene G1 [1, 17]: 58 (3) % | % of control metabolism, raloxifene G2 [1, 17]: 111 (7) % | % of control metabolism, raloxifene G1 [1, 18]: 36 (1) % | % of control metabolism, raloxifene G2 [1, 18]: 100 (5) % | % of control metabolism, raloxifene G1 [1, 19]: 14 (1) % | % of control metabolism, raloxifene G2 [1, 19]: 58 (2) % | % of control metabolism, raloxifene G1 [1, 20]: 8 (0) % | % of control metabolism, raloxifene G2 [1, 20]: 43 (0) % | residual metabolism (% of control), E2-17-β-D-glucuronide ([2]; inhibitor 100 μM): 217 (5) % | residual metabolism (% of control), E2-3-β-D-glucuronide ([3]; inhibitor 100 μM): 69 (1), % | residual metabolism (% of control), E2-3-β-D-glucuronide ([8]; liver 032101, inhibitor 1 μM): 85 (1), % | residual metabolism (% of control), E2-17-β-D-glucuronide ([8]; liver 032101, inhibitor 1 μM): 361 (6) % | residual metabolism (% of control), E2-3-β-D-glucuronide ([8]; liver 032101, inhibitor 10 μM): 57 (4), % | residual metabolism (% of control), E2-17-β-D-glucuronide ([8]; liver 032101, inhibitor 10 μM): 545 (32) % | residual metabolism (% of control), E2-3-β-D-glucuronide ([8]; liver 062101, inhibitor 1 μM): 86 (3) % | residual metabolism (% of control), E2-17-β-D-glucuronide ([8]; liver 062101, inhibitor 1 μM): 254 (2) % | residual metabolism (% of control), E2-3-β-D-glucuronide ([8]; liver 062101, inhibitor 10 μM): 71 (2) % | residual metabolism (% of control), E2-17-β-D-glucuronide ([8]; liver 062101, inhibitor 10 μM): 446 (7) % | % of control metabolism, raloxifene G1 ([4]; inhibitor 10 μM): 78 (0) % | % of control metabolism, raloxifene G2 ([4]; inhibitor 10 μM): 90 (4) % | residual metabolism (% of control), 2ME2 MG1 ([5]; inhibitor 1 μM): 93 (4) % | residual metabolism (% of control), 2ME2 MG1 ([5]; inhibitor 10 μM): 75 (1) % | residual metabolism (percentage of control), zidovudine glucuronidation ([6]; inhibitor 50 μM): 50 (4) % and 44 (2) % | residual metabolism (percentage of control), zidovudine glucuronidation ([6]; inhibitor 100 μM): 34 (4) % | residual metabolism (percentage of control), zidovudine glucuronidation ([6]; inhibitor 200 μM): 15 (1) % | residual metabolism (percentage of control), zidovudine glucuronidation ([6]; inhibitor 500 μM): 0 (0) % | residual metabolism (percentage of control), labetalol LG1 ([9]; inhibitor 50 μM): 23 (3) % | residual metabolism (percentage of control), labetalol LG2 ([9]; inhibitor 50 μM): 29 (8) % | residual metabolism (percentage of control), labetalol LG1 ([9]; inhibitor 100 μM): 1 (3) % and 5 (3) % | residual metabolism (percentage of control), labetalol LG2 ([9]; inhibitor 100 μM): 11 (1) % and 8 (1) %
SMILES: CC/C(=C(/CC)c1ccc(O)cc1)c1ccc(O)cc1 [Diethylstilbestrol, reference compound]
